Values quoted from earlier work as cited in patent publication US20240197774A1, “Synthesis of Antimicrobial PVP-coated Bismuth Nanoparticles” (Board of Regents, The University of Texas System, priority 2021, published 2024).

System: humans
Conditions: intake for years, considered non-toxic

[Bi] [Bismuth]
Intake: 5 to 20 g/day/kg
